Reference: US20250282734A1 (Bayer Aktiengesellschaft, priority 2021, published 2025)
Like-named read-outs stand apart in the source and are kept apart here. Marks after values point to notes of the source that are not given here.

What was measured:
[1] = Hygroscopy, dynamic vapour sorption (DVS) isotherms (Example 15); type: physicochemical
Method: Water sorption isotherms were determined using a DVS Resolution gravimetric sorption analyzer (London, UK), or a DVS Intrinsic instrument (Surface measurement Systems). The sample was dried for 1000 minutes at 0% relative humidity (R.H.). Afterwards the dry weight was recorded. […] The equilibrium criterion for each relative humidity set point was 0.002% per minute relative mass change as a function of time.

[2] = Dissolution profile, flow through cell in FeSSIF / FaSSIF (Example 16); type: physicochemical
Method: Prior to the measurements, the samples were micronized using a jet mill (MC DECJET 30) under nitrogen, with a pressure of 4.5 Bar for the injector and 4.0 Bar grinding pressure.
Dissolution rates of the drug substance were then determined using a flow through cell (FTC) from Sotax. All experiments were conducted in triplicates.
Then, the respective medium (FaSSIF or FeSSIF) was pumped through the cell with a pump rate of 2 mL/min for a total time of 14 minutes, resulting in a total volume of 28 mL. This volume was collected in time increments of 2 minutes, leading to 7 collected fractions with 4 mL each. The drug substance concentration of each fraction was determined by HPLC (external standard).

[3] = Solubility of cholinate vs free acid and other salts, shake-flask method (Example 14); type: physicochemical
Method: (§1) Preparation of FaSSIF (Fasted State Simulated Intestinal Fluid) blank solution: 4.2 g NaOH, 44.7 g NaH2PO4*2 H2O, and 61.86 g NaCl were dissolved in approximately 9.5 L demineralized water. Then, the pH of this solution was adjusted to 6.50+/−0.05 using HCl or NaOH, respectively. In the last step, the final volume was adjusted to 10.0 L by the addition of demineralized water.
Preparation of the final FaSSIF solution: 4.48 g SIF (Simulated Intestinal Fluids) powder (provider: biorelevant.com, Product code: FFF01 (May 2022)) were dissolved in approximately 500 mL FaSSIF blank solution, then the final volume was adjusted to 2.0 L by the addition of FaSSIF blank solution. After 2 hours, the solution was considered to be ready to use and was used within 48 hours.
as §1, with “FeSSIF (Fed” for “FaSSIF (Fasted”, “40.4” for “4.2”, “118.74” for “44.7”, “NaCl,” for “NaH2PO4*2 H2O,”, “82.4 mL glacial acetic acid” for “61.86 g NaCl”, “5.00+/−0.05” for “6.50+/−0.05”
Preparation of the final FeSSIF solution: 22.4 g SIF powder (provider: biorelevant.com, Product code: FFF01 (May 2022)) were dissolved in approximately 500 mL FeSSIF blank solution, then the final volume was adjusted to 2.0 L by the addition of FeSSIF blank solution. The solution was considered to be ready to use immediately after manufacturing and was used within 48 hours.

[4] = Solubility free acid vs. salt, shake-flask method (Example 12); type: physicochemical
[5] = Determination of exposure in rat after intragastric administration (Example 13); type: in vivo; conditions: for AUC(0-t): female, plasma, po, read-out: AUC(0-tlast); for AUC(0-t) / AUC(0-tlast)norm: free acid in rat plasma
Method: Determination of exposure after intragastric application of test compounds was performed in female conscious rats with a body weight of 0.2 kg (minimum) to 0.25 kg (maximum). The test compounds were applied as bolus via intragastric probe to unfed female rats in solution or suspension in the vehicle ethanol/solutol/water (v/v/v 10/40/50).
At the indicated timepoints between 8 min and 24 h after dosing, 150 μl blood were sampled via a catheter from the vena jugularis. The samples were treated with K-EDTA as anticoagulant and stored cooled until further processing (refrigerator, 4° C.). The samples were centrifuged (15 min, 3000 rpm), then an aliquot of 100 μL was taken from the supernatant (plasma), precipitated by addition of 400 μL cold acetonitrile or methanol (abs.) and frozen at −20° C. over night. The samples were centrifuged (15 min, 3000 rpm), then 150 μL of the clear supernatant were taken for analytical testing. Analytics were performed using an Agilent 1200 HPLC-system with LCMS/MS detection.
The applied dose of cholinate according to the invention was adjusted as compared to free acid according to the difference in molecular weight. The resulting equivalent doses were used for comparison.

O=C([O-])c1cc(NC(=O)C2(c3ccc(C(F)(F)F)cc3F)CC2)ccc1-c1cnn(C2CCC2)c1.[Na+] [Sodium salt, Sodium 2-(1-cyclobutyl-1H-pyrazol-4-yl)-5-[({1-[2-fluoro-4-(trifluoromethyl)phenyl]cyclopropyl}carbonyl)amino]benzoate]
Change in mass [%], Desorption ([1]; 0% Relative humidity): −3.95%
Change in mass [%], Sorption ([1]; 0% Relative humidity): 0.00%
Change in mass [%], Desorption ([1]; 10% Relative humidity): −0.87%
Change in mass [%], Sorption ([1]; 10% Relative humidity): 0.85%
Change in mass [%], Desorption ([1]; 20% Relative humidity): 0.84%
Change in mass [%], Sorption ([1]; 20% Relative humidity): 1.36%
Change in mass [%], Desorption ([1]; 30% Relative humidity): 1.91%
Change in mass [%], Sorption ([1]; 30% Relative humidity): 1.92%
Change in mass [%], Desorption ([1]; 40% Relative humidity): 3.33%
Change in mass [%], Sorption ([1]; 40% Relative humidity): 2.95%
Change in mass [%], Desorption ([1]; 50% Relative humidity): 5.07%
Change in mass [%], Sorption ([1]; 50% Relative humidity): 7.77%
Change in mass [%], Desorption ([1]; 60% Relative humidity): 7.95%
Change in mass [%], Sorption ([1]; 60% Relative humidity): 11.23%
Change in mass [%], Desorption ([1]; 70% Relative humidity): 11.79%
Change in mass [%], Sorption ([1]; 70% Relative humidity): 15.05%
Change in mass [%], Desorption ([1]; 80% Relative humidity): 16.87%
Change in mass [%], Sorption ([1]; 80% Relative humidity): 20.22%
Change in mass [%], Desorption ([1]; 90% Relative humidity): 26.84%
Change in mass [%], Sorption ([1]; 90% Relative humidity): 30.67%
Change in mass [%], Desorption ([1]; 95% Relative humidity): 42.62%
Change in mass [%], Sorption ([1]; 95% Relative humidity): 42.62%
DVS Dm @ 30% R.H. (Sorption) ([1]; summarized results, 30% R.H.): 1.9%
DVS Dm @ 50% R.H. (Sorption) ([1]; summarized results, 50% R.H.): 5.1%
DVS Dm @ 80% R.H. (Sorption) ([1]; summarized results, 80% R.H.): 20.2%
Dissolution profile, comparison in words ([2]; micronized samples): no differences
solubility ([3]; Buffer pH 4.5, 25° C.): 3 mgfree acid/L
solubility ([3]; Buffer pH 7, 25° C.): 421 mgfree acid/L
solubility ([3]; Buffer pH 8, 25° C.): 5075 mgfree acid/L
solubility ([3]; FaSSIF (37° C.) (Fasted State Simulated Intestinal Fluid)): 426 mgfree acid/L
solubility ([3]; FeSSIF (37° C.) (Fed State Simulated Intestinal Fluid)): 14 mgfree acid/L
solubility ([3]; Water, 25° C.): 6176 mgfree acid/L

O=C(O)c1cc(NC(=O)C2(c3ccc(C(F)(F)F)cc3F)CC2)ccc1-c1cnn(C2CCC2)c1 [free acid, 2-(1-cyclobutyl-1H-pyrazol-4-yl)-5-[({1-[2-fluoro-4-(trifluoromethyl)-phenyl]cyclopropyl}carbonyl)amino]benzoic acid]
solubility ([4]; Acetone, 25° C.): 10100 mg/L
solubility ([4]; Acetonitrile, 25° C.): 1290 mg/L
solubility ([4]; Ethanol, 25° C.): 4260 mg/L
solubility ([4]; PEG 400, 25° C.): 6830 mg/L
solubility ([4]; Phosphate buffer pH 7, 25° C.): 87 mg/L
solubility ([4]; Solutol/Ethanol/Water (40/10/50 V/V/V), 25° C.): 1300 mg/L
solubility ([4]; Water, 25° C., stirred overnight): <1* mg/L
pH of the clear solution ([4]; solubility test in water, pH of water before stirring: 5.57): *pH of the clear solution: 4.6
Change in mass [%], Desorption ([1]; 0% Relative humidity): 0.65%
Change in mass [%], Sorption ([1]; 0% Relative humidity): 0.06%
Change in mass [%], Desorption ([1]; 10% Relative humidity): 0.52%
Change in mass [%], Sorption ([1]; 10% Relative humidity): 0.08%
Change in mass [%], Desorption ([1]; 20% Relative humidity): 0.42%
Change in mass [%], Sorption ([1]; 20% Relative humidity): 0.10%
Change in mass [%], Desorption ([1]; 30% Relative humidity): 0.35%
Change in mass [%], Sorption ([1]; 30% Relative humidity): 0.12%
Change in mass [%], Desorption ([1]; 40% Relative humidity): 0.29%
Change in mass [%], Sorption ([1]; 40% Relative humidity): 0.14%
Change in mass [%], Desorption ([1]; 50% Relative humidity): 0.16%
Change in mass [%], Sorption ([1]; 50% Relative humidity): 0.17%
Change in mass [%], Desorption ([1]; 60% Relative humidity): 0.09%
Change in mass [%], Sorption ([1]; 60% Relative humidity): 0.20%
Change in mass [%], Desorption ([1]; 70% Relative humidity): 0.05%
Change in mass [%], Sorption ([1]; 70% Relative humidity): 0.23%
Change in mass [%], Desorption ([1]; 80% Relative humidity): 0.03%
Change in mass [%], Sorption ([1]; 80% Relative humidity): 0.29%
Change in mass [%], Desorption ([1]; 90% Relative humidity): 0.01%
Change in mass [%], Sorption ([1]; 90% Relative humidity): 0.44%
Change in mass [%], Desorption ([1]; 95% Relative humidity): 0.00%
Change in mass [%], Sorption ([1]; 95% Relative humidity): 0.65%
Dissolution in FaSSIF, comparison in words ([2]; FaSSIF, 14 minutes, micronized): dissolved slower
Dissolution in FeSSIF, comparison in words ([2]; FeSSIF, 14 minutes, micronized): significantly slower
AUC(0-t) ([5]; rat, 3 mg/kg, dose equiv. 3 mg/kg): 24 µg·h/mL
AUC(0-t) ([5]; rat, 30 mg/kg, dose equiv. 30 mg/kg): 149 µg·h/mL
AUC(0-t) ([5]; rat, 100 mg/kg, dose equiv. 100 mg/kg): 247 µg·h/mL
AUC(0-t) ([5]; rat, 150 mg/kg, dose equiv. 150 mg/kg): 225 µg·h/mL
AUC(0-tlast)norm ([5]; dose equiv. 3 mg/kg): 8.1 kg·h/L
AUC(0-tlast)norm ([5]; dose equiv. 30 mg/kg): 5 kg·h/L
AUC(0-tlast)norm ([5]; dose equiv. 100 mg/kg): 2.5 kg·h/L
AUC(0-tlast)norm ([5]; dose equiv. 150 mg/kg): 1.5 kg·h/L
Increase of plasma exposure of free acid with dose ([5]; rat, doses above 30 mg/kg): much less than dose-proportional increase of exposure
